According to US20140274969A1 (priority 2013, published 2014):
Like-named read-outs stand apart in the source and are kept apart here.

Assays:
[1] = system: amyotrophic lateral sclerosis; conditions: human; cited from earlier work
SCI [2] = conditions: rats; 90 mg/kg immediately after SCI then 45 mg/kg every 12 h; cited from earlier work
acute traumatic SCI [3] = assay: Functional recovery scales (SCIM, FIM, London Handicap, SF36) after SCI; assay type: in vivo, human; conditions: 6 to 52 weeks after injury
Protocol: Clin. Exp. Pharmacol. Physiol. 1:299-308). […] Functional outcome was assessed using the Spinal Cord Independence Measure, Functional Independence Measure, London Handicap scale, and Short Form 36 questionnaires administered at 6 weeks, 12 weeks, 26 weeks, and 52 weeks after injury. […] ASIA sensory scores were similarly evaluated. […] Functional recovery data were compared over all data points. […] All statistical tests were two-tailed (a=0.05).

contusive SCI = conditions: rats; 90 mg/kg i.p. or via jugular cannula, then two 45 mg/kg i.p. at 12-h intervals; cited from earlier work
[4] = cited from earlier work
acute traumatic SCI [5] = assay: ASIA motor recovery after acute traumatic SCI (randomized placebo-controlled trial); assay type: in vivo, human
Protocol: The research protocol disclosed herein was approved by the University of Calgary Conjoint Health Research Ethics Board. Between June 2004 and August 2008, all subjects presenting with motor deficit secondary to acute traumatic SCI to the Spine Service at the Foothills Medical Centre in Calgary, Calgary, Alberta, Canada, were immediately identified to the principal investigators and were assessed and screened for this trial (Clinical Trials Gov. Identifier No. NCT00559494). Those within 12 h of injury who met other inclusion criteria (Table 1) were offered enrolment. […] For this purpose, sets of 10 random numbers balanced for odd and even integers were computer generated. Sequentially numbered and sealed packaged kits containing minocycline or placebo were constructed from the randomization codes for each stratified group by an independent individual not otherwise involved in the trial. Patients were administered the next available treatment kit for their appropriate treatment group. With the exception of the bedside nurse responsible for study drug administration, all subjects and research personnel were blinded to treatment until the end of the study (FIG. 1). […] Clin. Exp. Pharmacol. Physiol. 1:299-308). […] Neurological function was assessed at intervals using the American Spinal Cord Injury Association (ASIA) standardized neurological examination and included the motor composites and sensory composites. These examinations were performed by a physical medicine and rehabilitation specialist at Day 1 (time of enrolment), Day 4, Day 5, Day 7, Week 3, Week 6, Week 12, Month 6, and Month 12 (Table 3). Day 1 scores were subtracted from each subsequent score to calculate improvement from baseline for graphing purposes. […] ASIA sensory scores were similarly evaluated. […] Functional recovery data were compared over all data points. […] All statistical tests were two-tailed (a=0.05).

[6] = system: mixed neuronal and glial spinal cord cultures; conditions: 20 nM, 30 minutes before 24-hour excitotoxin exposure; cited from earlier work
[7] = cited from earlier work; remark: listed apart in the source
cervical SCI = conditions: rat; 90 mg/kg i.p. daily for 3 days; 42-day monitoring; cited from earlier work
SCI [8] = conditions: mice; two 50 mg/kg i.p. doses then three 25 mg/kg doses at 24 h intervals; cited from earlier work
MMP activity = conditions: cited from earlier work
[9] = long-term administration, global reports

Structure (SMILES): CN(C)c1ccc(O)c2c1C[C@H]1C[C@H]3[C@H](N(C)C)C(O)=C(C(N)=O)C(=O)[C@@]3(O)C(O)=C1C2=O [minocycline, (2E,4S,4aR,5aS,12aR)-2-(amino-hydroxy-methylidene)-4,7-bis(dimethylamino)-10,11,12a-trihydroxy-4-a,5,5a,6-tetrahydro-4H-tetracene-1,3,12-trione]
- clinical outcome in amyotrophic lateral sclerosis [1]: clinical deterioration
- functional motor control in the hind limbs (SCI [2]): improved
- size of lesions on spinal cords (SCI [2]): reduced
- functional outcomes (SCIM, FIM, London Handicap Scale, Short Form 36) vs placebo (acute traumatic SCI [3]): greater in the minocycline-treated group but the differences were not statistically significant
- behavioural or histological improvements or recovery from SCI (contusive SCI): neither route for minocycline administration resulted in any behavioural or histological improvements
- serum concentrations well tolerated ([4]; humans): up to 6.2 mg/L
- cases of drug induced lupus [4, 9]: 33 cases
- cases of hypersensitivity reaction [4, 9]: 19 cases
- cases of serum sickness-like reaction [4, 9]: 11 cases
- cases of single organ dysfunction [4, 9]: 40 cases
- ASIA motor recovery greater than placebo (acute traumatic SCI [5]; all subjects with data beyond 3 months (44), 3-12 month plateau, P=0.20): 6 motor points
- distribution of motor recovery difference vs placebo: lower extremity and new segment scores (acute traumatic SCI [5]; cervical SCI): majority of the difference
- distribution of motor recovery difference vs placebo: upper extremities, zone of partial preservation (acute traumatic SCI [5]; cervical SCI): Little difference
- difference in ASIA motor score over placebo (acute traumatic SCI [5]; cervical SCI (n=25), 95% CI 0-28, P=0.05): 14 point
- motor recovery, low-dose vs high-dose groups (acute traumatic SCI [5]; cervical SCI subgroups (FIG. 5)): greater difference with higher doses
- difference in ASIA motor score over placebo (acute traumatic SCI [5]; cervical motor-complete (n=16), P=0.29): 10 points
- difference in ASIA motor score over placebo (acute traumatic SCI [5]; cervical motor-incomplete (n=9), P=0.12): 22 points
- difference in ASIA motor score over placebo (acute traumatic SCI [5]; cervical motor-incomplete, excluding one placebo subject with poor recovery (n=8), P=0.135): 13 points
- ASIA motor recovery benefit vs placebo (acute traumatic SCI [5]; thoracic SCI (n=17)): did not show any benefit
- IL-1β and NO metabolite production [6]: reduced
- microglia proliferation [6]: Inhibition
- neuronal cell survival [6]: more than doubled
- eliminated unchanged through the kidneys ([7]; human, in vivo): Eight to twelve
- elimination in biologically active form through the feces ([7]; human, in vivo): 20-35 % of the initial dose
- metabolism to three inactive liver metabolites excreted in urine and feces ([7]; human, in vivo): 50-60 % of the administered dose
- peak serum concentration ([7]; oral 150 mg): about 2 mg/L
- peak serum concentration ([7]; oral 300 mg): about 4 mg/L
- half-life ([7]; oral or intravenous administration): 16 h
- functional or histological improvements (cervical SCI): did not result in any functional or histological improvements
- recovery from SCI (SCI [8]): facilitated significant recovery
- inhibition of MMP activity (MMP activity): potent inhibitor
